The source of these data is PubChem BioAssay (NCI).

Several values for one entry are separate records, joined by “and”; a condition that tells them apart may be missing. Identical values can stand only once.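 Grown in 96-well plates, cells were treated for 48 hours with each compound at five concentrations. Insufficient inhibition: endpoint recorded as highest concentration tested. GI50 is the concentration that inhibits growth by half. TGI: total growth inhibition.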

The subject of one assay is IGROV1 ovarian. Description: NCI anticancer screen, dose series, 48 h.
For `O=C(O)CCNCCCNCCC(=O)O`, the TGI is over 100 µM.
`CC(=O)[CH-]C(=O)c1ccccc1.CC(=O)[CH-]C(=O)c1ccccc1.CN(C)c1ccc([O-])cc1.CN(C)c1ccc([O-])cc1.Cl.[Ti+4]`: the GI50 is 46.8 µM and the TGI is over 100 µM.
As to `NC1=NCCC1(c1ccccc1)c1ccccn1` (centres undefined), the TGI was over 100 µM.
Still for that read-out and setting: as for `CCCCCCCCCCCC(=O)OCCOCCOCCOCCOCCOCc1ccccc1`, the figure is over 100 µM; as for `CCCCCCCCCCCCCC(=O)OC(/C=C/C(C)C)C(O)C(O)C(OC)C(=O)NC1CCCCN(C)C1=O` (centres undefined), 5.9 µM and > 49 µM.
Same read-out and setting: as for `CCOC(=O)CCC1(C(=O)OCC)CCCCC1=O` (centres undefined), the figure is over 100 µM; as for `COC(=O)c1ccccc1NC(=O)C(=O)Cc1nc2c3c(ccc2[nH]c1=O)C(=O)c1ccccc1C3=O`, 99.1 µM.
Still for that read-out and setting: as for `CCOC(=O)C(C)(C)Oc1ccc2c(-c3ccccc3)cc(=O)oc2c1`, the figure is over 100 µM; as for `CCCC1C(=O)CCc2c(OC)ccc(OC)c21` (centres undefined), over 100 µM.
`NC(=O)NO.O.O.O.O.O.O.O.O.O.O.O.[Ge].[Ge].[Ge].[Ge].[Ge].[O]=[Ge].[O]=[Ge].[O]=[Ge].[O]=[Ge].[O]=[Ge][OH]` came in with a TGI of over 100 µM.
Same read-out and setting: as for `O=C(Nc1nc2ccc([N+](=O)[O-])cc2s1)C(=O)C(C1OC(=O)c2ccccc21)[N+](=O)[O-]` (centres undefined), the figure is over 100 µM.
`CCC[CH2][Sn]([CH2]CCC)([S]c1cccc2cccnc12)[S]c1cccc2cccnc12`: the GI50 is 0.224 µM and the TGI came out at 0.53 µM.

For another assay, the system named is SK-MEL-5 melanoma. Description: NCI anticancer screen, dose series, 48 h.
`Cc1c(C(=O)CC(=O)C(=O)Nc2ccccc2C(F)(F)F)[n+](=O)c2ccccc2n1[O-]` gave a TGI of 30.4 µM.
Take `Cc1cc(N(CCC#N)CCC#N)ccc1N=Nc1ccc(S(N)(=O)=O)cc1`: the TGI was over 100 µM.
`Cc1nc2c(ccc3ncccc32)[nH]1` returned a TGI of over 100 µM.
Take `O=C(CCc1nc(=S)[nH][nH]1)Nc1cc(Cl)c(Cl)cc1Cl`: the TGI was over 100 µM.
Still for that read-out and setting: the figure for `CN(C)C(=S)N=C(Nc1ccccc1)Nc1ccccc1` is over 100 µM.
`Nc1ccccc1S(=O)(=O)N(CC(=O)O)c1ccccc1` registered a TGI of over 100 µM.
`COc1ccccc1N1C(=O)C2c3[nH]c4ccccc4c3C3CCC(C(C)(C)C)CC3C2C1=O` (centres undefined) gave a TGI of over 100 µM.
`Cc1cc(NS(=O)(=O)c2ccc(Nc3c4ccccc4nc4c(C(=O)N5CCN(CCOS(C)(=O)=O)CC5)cccc34)cc2)no1` returned a TGI of over 100 µM.
The same measure, in the same setting: the figure for `O=C(O)CCC(NC(=O)c1ccc(Nc2nc3ccccc3nc2-c2cccs2)cc1)C(=O)O` (centres undefined) is over 100 µM.
The compound `COc1cc2ccnc([C@@H](OC(=O)c3ccccc3)c3ccc(OC)c(OC)c3OC)c2cc1OC` yielded a TGI of 56.6 µM.
Regarding `COc1cnc2c(c1)C(=O)c1c-2n(CCCN2CCOCC2)c(=O)c2cc(F)ccc12`, the GI50 is 0.169 µM and the TGI stood at 0.446 µM.
In turn, `CCn1c(C)nn2c(=O)c3ccccc3nc2c1=O` displayed a TGI of over 100 µM.
The same measure, in the same setting: the figure for `COC(=O)/C(C#N)=C1\NC(=O)c2ccccc21` is over 100 µM; for `O=C(O)CCNCCCNCCC(=O)O` it is over 100 µM.
With `CC(=O)[CH-]C(=O)c1ccccc1.CC(=O)[CH-]C(=O)c1ccccc1.CN(C)c1ccc([O-])cc1.CN(C)c1ccc([O-])cc1.Cl.[Ti+4]`, the GI50 is 40 µM and the TGI was over 88 µM.
Regarding `NC1=NCCC1(c1ccccc1)c1ccccn1` (centres undefined), the TGI was over 100 µM.
`CCCCCCCCCCCC(=O)OCCOCCOCCOCCOCCOCc1ccccc1`: the TGI is over 100 µM.
On to `CCCCCCCCCCCCCC(=O)OC(/C=C/C(C)C)C(O)C(O)C(OC)C(=O)NC1CCCCN(C)C1=O` (centres undefined), for which the TGI is 5.92 µM and > 49 µM.
Take `CCOC(=O)CCC1(C(=O)OCC)CCCCC1=O` (centres undefined): the TGI was over 100 µM.
In the case of `COC(=O)c1ccccc1NC(=O)C(=O)Cc1nc2c3c(ccc2[nH]c1=O)C(=O)c1ccccc1C3=O`, the TGI is 13.6 µM.
On the same count and under the same terms, as for `CCOC(=O)C(C)(C)Oc1ccc2c(-c3ccccc3)cc(=O)oc2c1`, the figure is 26.9 µM.
On the same count and under the same terms, the figure for `CCCC1C(=O)CCc2c(OC)ccc(OC)c21` (centres undefined) is over 100 µM.
Still for that read-out and setting: as for `NC(=O)NO.O.O.O.O.O.O.O.O.O.O.O.[Ge].[Ge].[Ge].[Ge].[Ge].[O]=[Ge].[O]=[Ge].[O]=[Ge].[O]=[Ge].[O]=[Ge][OH]`, the figure is over 100 µM; as for `O=C(Nc1nc2ccc([N+](=O)[O-])cc2s1)C(=O)C(C1OC(=O)c2ccccc21)[N+](=O)[O-]` (centres undefined), over 100 µM.
`CCC[CH2][Sn]([CH2]CCC)([S]c1cccc2cccnc12)[S]c1cccc2cccnc12`: the GI50 was 0.201 µM and the TGI worked out at 0.534 µM.

Another assay relates to HT29 colon. Description: NCI anticancer screen, dose series, 48 h.
As for `CCN1CCN(Cc2ccc(NC(=O)c3cccc(C#Cc4cccc5[nH]nc(N)c45)c3)cc2C(F)(F)F)CC1`, the GI50 is 0.118 µM and the TGI was 1.16 µM.
For `Cc1c(C(=O)CC(=O)C(=O)Nc2ccccc2C(F)(F)F)[n+](=O)c2ccccc2n1[O-]`, the TGI was 57.2 µM.
The same measure, in the same setting: as for `Cc1cc(N(CCC#N)CCC#N)ccc1N=Nc1ccc(S(N)(=O)=O)cc1`, the figure is over 100 µM; as for `Cc1nc2c(ccc3ncccc32)[nH]1`, over 100 µM; as for `C1=C2/CC[C@H](Sc3ccccc3)C2C2(CCCCC/1)OCCO2` (some centres undefined), 28 µM.
Consider `O=C(CCc1nc(=S)[nH][nH]1)Nc1cc(Cl)c(Cl)cc1Cl`, for which the TGI is over 100 µM.
Still for that read-out and setting: the figure for `CN(C)C(=S)N=C(Nc1ccccc1)Nc1ccccc1` is over 100 µM; for `Nc1ccccc1S(=O)(=O)N(CC(=O)O)c1ccccc1` it is over 100 µM.
On the same count and under the same terms, as for `CC1(C)C(=O)/C=C\C(=O)C(C)(C)C2=CC=C(O2)C(C)(C)C(=O)/C=C\C(=O)C(C)(C)C2=CC=C1O2`, the figure is over 100 µM.
Compound `COc1ccccc1N1C(=O)C2c3[nH]c4ccccc4c3C3CCC(C(C)(C)C)CC3C2C1=O` (centres undefined) displayed a TGI of over 100 µM.
`Cc1cc(NS(=O)(=O)c2ccc(Nc3c4ccccc4nc4c(C(=O)N5CCN(CCOS(C)(=O)=O)CC5)cccc34)cc2)no1` yielded a TGI of over 100 µM.
Compound `O=C(O)CCC(NC(=O)c1ccc(Nc2nc3ccccc3nc2-c2cccs2)cc1)C(=O)O` (centres undefined) returned a TGI of over 100 µM.
The same measure, in the same setting: the figure for `COc1cc2ccnc([C@@H](OC(=O)c3ccccc3)c3ccc(OC)c(OC)c3OC)c2cc1OC` is over 100 µM.
On to `COc1cnc2c(c1)C(=O)c1c-2n(CCCN2CCOCC2)c(=O)c2cc(F)ccc12`, for which the GI50 is 0.147 µM and the TGI stood at 0.638 µM.
Consider `CCn1c(C)nn2c(=O)c3ccccc3nc2c1=O`, for which the TGI was over 100 µM.
Same read-out and setting: as for `COC(=O)/C(C#N)=C1\NC(=O)c2ccccc21`, the figure is over 100 µM; as for `O=C(O)CCNCCCNCCC(=O)O`, over 100 µM.
Consider `CC(=O)[CH-]C(=O)c1ccccc1.CC(=O)[CH-]C(=O)c1ccccc1.CN(C)c1ccc([O-])cc1.CN(C)c1ccc([O-])cc1.Cl.[Ti+4]`, for which the GI50 was 18.1 µM and the TGI is over 31.6 µM.
In the case of `NC1=NCCC1(c1ccccc1)c1ccccn1` (centres undefined), the TGI was over 100 µM.
